Assay results taken from patent publication US20240262805A1, “METHOD FOR PRODUCING COMPOUND OR PHARMACEUTICALLY ACCEPTABLE SALT THEREOF” (EA PHARMA CO., LTD., priority 2021, published 2024).
Counter-ions that a name gives are not always drawn.

Assays:
Assay type in all cases: physicochemical
[1] = Deliquescence on standing at 60% RH and 25° C.; details: left in an environment of 60% RH and 25° C.; initially white powder
Description: In reference to the description on page 56 in Patent Literature 1 (International Publication No. WO2017/135472), the compound 10-BoC was deprotected. Specifically, the compound 10-BoC was dissolved in ethyl acetate and the reaction liquid was cooled to 5° C. After that, a hydrochloric acid/ethyl acetate solution was added dropwise thereto, followed by stirring at 20° C. for 16 hours. After that, the solid was filtered out and dried under reduced pressure to obtain a compound 16-HCl (a hydrochloric acid salt of the compound 16). The obtained compound was initially white powder, but when left in an environment of 60% RH and 25° C., was completely deliquesced within 24 hours.

[2] = Measurement of moisture absorption (automatic gas and vapor adsorption analyzer); details: BELSORP Aqua3 automatic gas and vapor adsorption analyzer
Description: Regarding the crystals B and C, the moisture absorption was measured by using an automatic gas and vapor adsorption analyzer (BELSORP Aqua3 manufactured by MicrotracBEL Corp.)

[3] = Measurement of solubility at pH 6.9 (saturated solution, HPLC); details: second dissolution test solution (pH 6.9), shaken at 20° C. for 24 hours, filtrate determined by HPLC
Description: Specifically, the crystal B can achieve a solubility at pH 6.9 of 50 μg/ml or more. Here, the solubility at pH 6.9 is measured by HPLC analysis. Specifically, the solubility at pH 6.9 can be measured in the method described below in Examples.
Regarding the crystals B and C, the solubility at pH 6.9 was measured. Specifically, a sample was excessively added to a second dissolution test solution (pH 6.9) (manufactured by Kanto Chemical Co., Inc.), and the mixture was shaken at 20° C. for 24 hours to produce a saturated solution. After the undissolved sample was removed with a filter, the amount of the compound in the filtrate was determined by HPLC, and the solubility […] was calculated.

SMILES	time until completely deliquesced [1] [h]	moisture absorption (at maximum) [2] [%]	solubility at pH 6.9 [3] [μg/ml]
Cc1cc(=O)n(-c2ccc(C[C@H](N)C(=O)OCC(C)C)cn2)c(=O)n1C [compound 16-HCl]	≤ 24	–	–
Cc1cc(=O)n(-c2ccc(C[C@H](NC(=O)c3cc(F)c(NS(=O)(=O)c4ccc(NC(=O)C(C)(C)C)cc4)cc3F)C(=O)OCC(C)C)cn2)c(=O)n1C [crystal C, isobutyl(S)-2-(2,5-difluoro-4-((4-pivalamidophenyl)sulfonamido)benzamide)-3-(6-(3,4-dimethyl-2,6-dioxo-3,6-dihydropyrimidin-1(2H)-yl)pyridin-3-yl)propanoate]	–	≤ 0.24	25.0
Cc1cc(=O)n(-c2ccc(C[C@H](NC(=O)c3cc(F)c(NS(=O)(=O)c4ccc(NC(=O)C(C)(C)C)cc4)cc3F)C(=O)OCC(C)C)cn2)c(=O)n1C [crystal B, isobutyl(S)-2-(2,5-difluoro-4-((4-pivalamidophenyl)sulfonamido)benzamide)-3-(6-(3,4-dimethyl-2,6-dioxo-3,6-dihydropyrimidin-1(2H)-yl)pyridin-3-yl)propanoate]	–	≤ 1.35	150
